Results taken from paper PMC5967867, “An NMDAR positive and negative allosteric modulator series share a binding site and are interconverted by methyl groups” (eLife, 2018).
Values joined by “and” are separate entries in the source; they are usually repeats but may differ in a detail not shown here. Equal values may be shown once. Read-outs that look alike come from different tables or passages of the source. Marks after values point to notes of the source that are not given here.

Columns and labels:
Type in all cases: cell-based
GluN1/GluN2A NMDARs = GluN1/GluN2A NMDARs (Rattus norvegicus, UniProt P35439+Q00959); assay: Two-electrode voltage-clamp recordings, Xenopus laevis oocytes expressing GluN1/GluN2A; conditions: for EC50: read-out: EC50 (µM) [conf. int.]; for Emax: read-out: Maximal Degree of Modulation (% of control)
GluN1/GluN2A NMDARs, sequence (Q00959 23-1464, other chains not shown): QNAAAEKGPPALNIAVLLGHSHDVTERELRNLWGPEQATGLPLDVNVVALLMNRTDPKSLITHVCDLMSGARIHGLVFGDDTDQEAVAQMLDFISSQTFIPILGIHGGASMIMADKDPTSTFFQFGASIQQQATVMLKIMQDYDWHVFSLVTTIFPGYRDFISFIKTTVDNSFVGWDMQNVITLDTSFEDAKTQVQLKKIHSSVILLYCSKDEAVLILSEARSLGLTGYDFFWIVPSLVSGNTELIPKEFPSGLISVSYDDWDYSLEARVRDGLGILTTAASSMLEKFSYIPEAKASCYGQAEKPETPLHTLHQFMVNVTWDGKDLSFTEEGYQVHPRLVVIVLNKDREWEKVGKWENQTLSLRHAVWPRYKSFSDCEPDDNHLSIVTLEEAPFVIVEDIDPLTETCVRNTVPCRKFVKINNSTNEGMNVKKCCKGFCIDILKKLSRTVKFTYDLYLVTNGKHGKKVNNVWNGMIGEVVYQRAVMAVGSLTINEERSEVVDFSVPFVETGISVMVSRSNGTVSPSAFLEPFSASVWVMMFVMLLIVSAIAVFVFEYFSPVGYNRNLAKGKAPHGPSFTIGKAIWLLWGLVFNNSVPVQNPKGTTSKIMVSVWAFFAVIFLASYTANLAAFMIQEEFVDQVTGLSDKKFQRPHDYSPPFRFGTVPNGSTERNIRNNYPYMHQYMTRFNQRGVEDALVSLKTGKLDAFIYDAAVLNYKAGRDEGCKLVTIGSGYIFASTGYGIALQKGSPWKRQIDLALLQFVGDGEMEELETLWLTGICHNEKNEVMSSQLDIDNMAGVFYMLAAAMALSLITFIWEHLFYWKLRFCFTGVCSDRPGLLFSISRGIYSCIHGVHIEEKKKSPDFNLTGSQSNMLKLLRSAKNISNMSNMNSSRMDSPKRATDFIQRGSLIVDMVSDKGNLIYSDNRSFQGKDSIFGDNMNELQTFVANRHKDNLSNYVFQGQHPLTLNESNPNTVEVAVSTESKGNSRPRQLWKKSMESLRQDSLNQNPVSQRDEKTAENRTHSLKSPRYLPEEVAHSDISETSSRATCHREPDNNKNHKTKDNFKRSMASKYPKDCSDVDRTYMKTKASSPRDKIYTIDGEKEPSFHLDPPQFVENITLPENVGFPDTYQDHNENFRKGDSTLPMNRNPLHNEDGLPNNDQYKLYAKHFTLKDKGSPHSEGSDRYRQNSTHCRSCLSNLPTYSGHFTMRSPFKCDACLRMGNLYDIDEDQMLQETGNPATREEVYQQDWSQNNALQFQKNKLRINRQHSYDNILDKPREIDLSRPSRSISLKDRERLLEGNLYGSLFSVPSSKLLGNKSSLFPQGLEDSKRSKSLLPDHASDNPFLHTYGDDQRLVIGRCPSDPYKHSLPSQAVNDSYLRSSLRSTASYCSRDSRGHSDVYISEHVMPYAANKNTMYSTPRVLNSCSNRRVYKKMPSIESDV
Experimental: (§1) cDNAs for rat wild type NMDAR subunits GluN1-1a (GenBank U11418, U08261; hereafter GluN1 or GluN1a), GluN1-1b (U08263, hereafter GluN1b), GluN2A (D13211), GluN2B (U11419), GluN2C (M91563), and GluN2D (L31611, modified as described in [Monyer et al., 1994]) were provided by Drs. S. Heinemann (Salk Institute), S. Nakanishi (Kyoto University), and P. Seeburg (University of Heidelberg). Site-directed mutagenesis was conducted using the QuikChange kit (Agilent Technologies, Santa Clara, CA) following the recommended protocol. DNA sequencing was used to verify all mutations. The amino acid numbering system started with the initiating methionine as residue number one. For expression in Xenopus laevis oocytes, cDNA constructs were linearized by restriction enzymes, and subsequently used to synthesize in vitro cRNAs following the manufacturer’s protocol (mMessage mMachine, Ambion, ThermoFisher Scientific, Waltham, MA).
(§2) Xenopus laevis stage VI oocytes (Ecocyte Biosciences, Austin, TX) were injected as previously described ([Hansen et al., 2013]) 2–7 days prior to recording with cRNA encoding the NMDAR subunits and stored at 15°C in media containing (in mM) 88 NaCl, 2.4 NaHCO3, 1 KCl, 0.33 Ca(NO3)2, 0.41 CaCl2, 0.82 MgSO4, 5 Tris-HCl; pH was adjusted to 7.4 with NaOH and the solution supplemented with 1 U/mL penicillin, 0.1 mg/mL gentamicin sulfate, and 1 μg/mL streptomycin. Two-electrode voltage-clamp recordings were performed at room temperature (21–23°C) using different internal solutions for voltage and current electrodes (0.3 M and 3.0 M KCl, respectively). All extracellular solutions were made from a solution containing (in mM) 90 NaCl, 1 KCl, 10 HEPES, 0.5 BaCl2, 0.01 EDTA (pH 7.4 with NaOH). Experiments were performed using an eight port Modular Valve Positioner (Hamilton Company, Reno, NV) and controlled by custom software (Easy Oocyte, Emory University, Atlanta, GA)to exchange solutions. Oocyte currents were recorded at a holding potential of −40 mV using a two-electrode voltage-clamp amplifier (OC-725B or OC-725C, Warner Instruments, Hamden, CT). […] In MTSEA experiments, fresh MTSEA solutions (0.2 mM) were prepared and utilized in less than 30 min to limit compound degradation.
(§3) Measurements are given as mean ± SEM unless otherwise indicated. The number of replicate experiments used was chosen to ensure a power level of at least 0.80 when α = 0.05 and when detecting appropriate effect sizes. EC50 and IC50 values and confidence intervals reported were calculated by averaging the log(EC50) or log(IC50) value, determining confidence intervals for mean log(EC50) or log(IC50), and converting back to units of molarity. Statistical significance evaluations (α set to 0.05) were performed using a one-way ANOVA with Dunnett’s multiple comparison test, a paired t–test, or other appropriate tests as described.

GluN1/GluN2B NMDARs = GluN1/GluN2B NMDARs (Rattus norvegicus, UniProt P35439+Q00960); assay: Two-electrode voltage-clamp recordings, Xenopus laevis oocytes expressing GluN1/GluN2B; conditions: for Emax: read-out: Maximal Degree of Modulation (% of control)
GluN1/GluN2B NMDARs, sequence (Q00960 27-1482, other chains not shown): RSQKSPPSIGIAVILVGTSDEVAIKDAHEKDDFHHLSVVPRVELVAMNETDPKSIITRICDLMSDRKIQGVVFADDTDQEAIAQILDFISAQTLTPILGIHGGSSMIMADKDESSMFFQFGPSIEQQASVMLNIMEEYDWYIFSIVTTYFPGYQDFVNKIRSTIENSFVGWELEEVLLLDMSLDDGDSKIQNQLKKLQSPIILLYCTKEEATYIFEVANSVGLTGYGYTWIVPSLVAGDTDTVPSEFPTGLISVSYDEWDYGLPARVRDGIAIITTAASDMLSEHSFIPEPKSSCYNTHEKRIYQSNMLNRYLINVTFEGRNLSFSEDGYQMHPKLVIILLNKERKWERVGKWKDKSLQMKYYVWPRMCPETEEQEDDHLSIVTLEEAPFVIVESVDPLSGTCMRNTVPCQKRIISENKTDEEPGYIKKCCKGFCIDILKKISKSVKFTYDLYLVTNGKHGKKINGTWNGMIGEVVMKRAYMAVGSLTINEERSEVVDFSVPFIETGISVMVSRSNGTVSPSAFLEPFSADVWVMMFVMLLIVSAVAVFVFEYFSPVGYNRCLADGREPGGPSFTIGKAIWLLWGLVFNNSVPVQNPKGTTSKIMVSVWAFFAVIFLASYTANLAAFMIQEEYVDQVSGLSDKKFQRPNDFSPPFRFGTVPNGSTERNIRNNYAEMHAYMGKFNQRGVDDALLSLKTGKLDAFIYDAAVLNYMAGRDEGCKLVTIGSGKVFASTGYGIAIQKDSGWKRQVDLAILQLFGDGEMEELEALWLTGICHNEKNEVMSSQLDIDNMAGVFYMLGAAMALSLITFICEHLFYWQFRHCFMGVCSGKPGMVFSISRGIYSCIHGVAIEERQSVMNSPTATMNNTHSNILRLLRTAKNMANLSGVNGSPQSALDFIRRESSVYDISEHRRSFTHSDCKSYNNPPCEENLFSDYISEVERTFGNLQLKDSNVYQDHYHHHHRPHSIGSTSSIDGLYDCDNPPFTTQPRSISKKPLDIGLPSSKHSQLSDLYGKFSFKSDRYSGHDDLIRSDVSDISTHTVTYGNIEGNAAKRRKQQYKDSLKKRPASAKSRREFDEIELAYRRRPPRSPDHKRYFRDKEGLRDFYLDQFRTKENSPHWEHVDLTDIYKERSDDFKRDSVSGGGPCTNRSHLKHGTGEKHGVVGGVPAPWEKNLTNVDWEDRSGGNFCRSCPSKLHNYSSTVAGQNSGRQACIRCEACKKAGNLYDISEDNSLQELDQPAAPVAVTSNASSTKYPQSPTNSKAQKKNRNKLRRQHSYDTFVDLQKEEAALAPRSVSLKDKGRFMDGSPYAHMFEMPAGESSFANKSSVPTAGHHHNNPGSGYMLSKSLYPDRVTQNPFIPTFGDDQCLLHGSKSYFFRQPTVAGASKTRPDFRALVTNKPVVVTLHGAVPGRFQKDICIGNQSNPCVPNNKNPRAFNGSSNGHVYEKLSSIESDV
Experimental: as §1, §2, §3

GluN1/GluN2C NMDARs = GluN1/GluN2C NMDARs (Rattus norvegicus, UniProt P35439+Q00961); assay: Two-electrode voltage-clamp recordings, Xenopus laevis oocytes expressing GluN1/GluN2C; conditions: for Modulation by 10 µM (% of control): 10 µM modulator; for Emax: read-out: Maximal Degree of Modulation (% of control)
Experimental: as §1, §2, §3

GluN1/GluN2D NMDARs = GluN1/GluN2D NMDARs (Rattus norvegicus, UniProt P35439+Q62645); assay: Whole cell patch-clamp recordings, HEK293 cells expressing GluN1/GluN2D; conditions: for kon / koff: HEK293; for kon: read-out: association rate kon; for koff: read-out: dissociation rate koff; for Kd: calculated from association and dissociation rates, HEK cells, read-out: kinetically-determined affinity constant Kd
GluN1/GluN2D NMDARs, sequence (Q62645 28-1323, other chains not shown): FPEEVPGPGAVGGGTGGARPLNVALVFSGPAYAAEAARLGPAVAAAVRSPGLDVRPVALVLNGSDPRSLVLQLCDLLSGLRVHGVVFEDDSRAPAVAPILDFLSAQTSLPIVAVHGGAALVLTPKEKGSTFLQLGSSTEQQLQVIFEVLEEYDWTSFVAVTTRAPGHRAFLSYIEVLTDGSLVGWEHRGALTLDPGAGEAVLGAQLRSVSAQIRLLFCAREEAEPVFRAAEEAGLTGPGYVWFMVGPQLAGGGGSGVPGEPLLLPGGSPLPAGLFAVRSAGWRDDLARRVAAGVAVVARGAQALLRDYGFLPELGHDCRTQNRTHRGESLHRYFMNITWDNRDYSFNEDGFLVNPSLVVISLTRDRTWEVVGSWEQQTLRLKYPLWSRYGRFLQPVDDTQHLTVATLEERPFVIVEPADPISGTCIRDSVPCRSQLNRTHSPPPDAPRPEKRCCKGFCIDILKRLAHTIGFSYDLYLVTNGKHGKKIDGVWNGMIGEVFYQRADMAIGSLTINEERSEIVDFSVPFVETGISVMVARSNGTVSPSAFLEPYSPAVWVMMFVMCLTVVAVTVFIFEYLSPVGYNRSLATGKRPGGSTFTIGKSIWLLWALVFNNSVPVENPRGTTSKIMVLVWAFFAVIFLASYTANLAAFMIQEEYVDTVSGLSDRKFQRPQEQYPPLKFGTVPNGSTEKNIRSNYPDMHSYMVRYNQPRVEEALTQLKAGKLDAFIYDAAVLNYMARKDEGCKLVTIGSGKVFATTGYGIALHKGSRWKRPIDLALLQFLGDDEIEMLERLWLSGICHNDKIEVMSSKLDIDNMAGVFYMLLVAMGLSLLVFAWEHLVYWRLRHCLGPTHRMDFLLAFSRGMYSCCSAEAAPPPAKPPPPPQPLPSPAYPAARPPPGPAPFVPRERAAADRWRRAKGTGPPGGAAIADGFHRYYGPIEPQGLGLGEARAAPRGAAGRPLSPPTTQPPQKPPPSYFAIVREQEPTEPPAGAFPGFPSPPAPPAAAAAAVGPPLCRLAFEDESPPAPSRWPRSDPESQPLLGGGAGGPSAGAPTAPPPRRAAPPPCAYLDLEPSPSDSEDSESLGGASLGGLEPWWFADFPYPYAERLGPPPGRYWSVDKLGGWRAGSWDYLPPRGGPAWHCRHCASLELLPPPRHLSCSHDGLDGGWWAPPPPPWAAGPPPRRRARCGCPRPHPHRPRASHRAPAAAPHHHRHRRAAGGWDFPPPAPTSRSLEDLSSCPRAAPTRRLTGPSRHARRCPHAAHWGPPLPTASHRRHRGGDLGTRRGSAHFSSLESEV
Experimental: We studied NMDARs expressed in HEK293 cells to investigate the time course of modulator action. […] These modulators were tested on GluN1/GluN2A and GluN1/GluN2D to see whether there were differences in modulation given the distinct properties of these NMDAR subtypes. […] The time-course of modulator binding of EU1794-2, EU1794-4 and EU1794-27 was also determined for GluN1/GluN2A (Figure 4C,D).
as §1
HEK293 cells (CRL-1573, ATCC, Manassas, VA) were maintained in a tissue culture room solely reserved for their culturing and transfected using a CaPO4 protocol to express the diheteromeric NMDARs as previously described ([Hansen et al., 2013]). Cell lines were obtained directly from the supplier, were expanded, frozen and kept in liquid nitrogen in a dewar. Mycoplasma testing was not performed. cDNA ratios for transfection were 1:1:1 (GluN2D) or 1:1:5 (GluN2A) for GluN1:GluN2:GFP.

[1] = glutamate/glycine 100/30 µM, no second modulator (+EU1794-27 0 µM), read-out: IC50 (µM) [conf. int.]
[2] = saturating glutamate/glycine 100/30 µM, mean [95% CI], - = not fit, response at 30 µM differed by no more than 15% from control
[3] = saturating glutamate/glycine 100/30 µM, mean ± SEM
[4] = sub-saturating glutamate/glycine 1/0.3 µM
[5] = saturating glutamate/glycine 100/30 µM, mean [95% CI], - = not fit, response at 30 µM differed by no more than 15% from control, read-out: EC50 (µM) [conf. int.]
[6] = sub-saturating glutamate/glycine 1/0.3 µM, read-out: EC50 (µM) [conf. int.]
[7] = Glu/Gly 1/0.3 µM (sub-saturating)
[8] = saturating glutamate/glycine 100/30 µM, mean [95% CI], read-out: EC50 (µM) [conf. int.]
[9] = sub-saturating glutamate/glycine 2/0.6 µM
[10] = +EU1794-2 1 µM, glutamate/glycine 100/30 µM, read-out: EU1794-27 EC50 (µM) [conf. int.]
[11] = +EU1794-2 3 µM, glutamate/glycine 100/30 µM, read-out: EU1794-27 EC50 (µM) [conf. int.]
[12] = concentration dependence of linear component of time course

EC50 (GluN1/GluN2A NMDARs; [2]) [µM]	Emax (GluN1/GluN2A NMDARs; [3]) [%]	EC50 (GluN1/GluN2B NMDARs; [5]) [µM]	Emax (GluN1/GluN2B NMDARs; [3]) [%]	EC50 (GluN1/GluN2B NMDARs; [6]) [µM]	Emax (GluN1/GluN2B NMDARs; [4]) [%]	Modulation by 10 µM (% of control) (GluN1/GluN2C NMDARs; [7])	Modulation by 10 µM (% of control) (GluN1/GluN2C NMDARs; Glu/Gly 100/30 µM)	EC50 (GluN1/GluN2C NMDARs; [8]) [µM]	Emax (GluN1/GluN2C NMDARs; [3]) [%]	EC50 (GluN1/GluN2C NMDARs; [6]) [µM]	Emax (GluN1/GluN2C NMDARs; [4]) [%]	kon (GluN1/GluN2D NMDARs) [M⁻¹ s⁻¹]	koff (GluN1/GluN2D NMDARs) [s⁻¹]	Kd (GluN1/GluN2D NMDARs)	SMILES	other results
2.2	32	2.6	67	4.3	210	140 ± 12 % of control	54 ± 1.6 % of control	0.42	52	15	220	1.12e+06	4.66	4.2 µM and 4.16 µM	CCOC(=O)c1c(NC(=O)CC2SC(=N)NC2=O)sc2c1CCCC2 (centres unmarked) [EU1794-4, ethyl 2-(2-(2-imino-4-oxothiazolidin-5-yl)acetamido)-4,5,6,7-tetrahydrobenzo[b]thiophene-3-carboxylate]	Fold Difference (glutamate EC50) (GluN1/GluN2A NMDARs; control vs 10 µM EU1794-4): 2.4^†; Fold Difference (glycine EC50) (GluN1/GluN2A NMDARs; control vs 10 µM EU1794-4): 2.8^†; IC50 (GluN1/GluN2A NMDARs; [1]): 2.2 µM; EC50 (GluN1/GluN2A NMDARs; [4]): 3.9 µM; Emax (GluN1/GluN2A NMDARs; [4]): 500%; Fold Difference (glutamate EC50) (GluN1/GluN2B NMDARs; control vs 10 µM EU1794-4): 2.0^†; Fold Difference (glycine EC50) (GluN1/GluN2B NMDARs; control vs 10 µM EU1794-4): 3.3^†; IC50 (GluN1/GluN2B NMDARs; read-out: IC50 (µM) [conf. int.]): 2.6 µM; Modulation by 10 µM (% of control) (GluN1/GluN2C NMDARs; Glu/Gly 0.3/0.09 µM (sub-saturating)): 660 ± 110 % of control; Fold Difference (glutamate EC50) (GluN1/GluN2C NMDARs; control vs 10 µM EU1794-4): 3.2^†; Fold Difference (glycine EC50) (GluN1/GluN2C NMDARs; control vs 10 µM EU1794-4): 4.6^†; IC50 (GluN1/GluN2C NMDARs; [1]): 0.42 µM
7.4	52	1.4	130	6.3	400	480 ± 31 % of control	190 ± 10 % of control	2.8	230	5	680	187000	0.802	4.3 µM	CC(C)(C)OC(=O)c1c(NC(=O)CC2SC(=N)NC2=O)sc2c1CCCC2 (centres unmarked) [EU1794-27, tert-butyl 2-(2-(2-imino-4-oxothiazolidin-5-yl)acetamido)-4,5,6,7-tetrahydrobenzo[b]thiophene-3-carboxylate]	Fold Difference (glutamate EC50) (GluN1/GluN2A NMDARs; control vs 10 µM EU1794-27): 2.3^†; Fold Difference (glycine EC50) (GluN1/GluN2A NMDARs; control vs 10 µM EU1794-27): 1.6; EC50 (GluN1/GluN2A NMDARs; [9]): 8.1 µM; Emax (GluN1/GluN2A NMDARs; [9]): 340%; EC50 (GluN1/GluN2B NMDARs; [10]): 6 µM; EC50 (GluN1/GluN2B NMDARs; [11]): 8.4 µM; Fold Difference (glutamate EC50) (GluN1/GluN2B NMDARs; control vs 10 µM EU1794-27): 2.0^†; Fold Difference (glycine EC50) (GluN1/GluN2B NMDARs; control vs 10 µM EU1794-27): 2.9^†; EC50 (GluN1/GluN2C NMDARs; [10]): 7.3 µM; EC50 (GluN1/GluN2C NMDARs; [11]): 7.3 µM; Fold Difference (glutamate EC50) (GluN1/GluN2C NMDARs; control vs 10 µM EU1794-27): 3.3^†; Fold Difference (glycine EC50) (GluN1/GluN2C NMDARs; control vs 10 µM EU1794-27): 2.4; association linear component slope mon (GluN1/GluN2D NMDARs; [12]): −0.98 pA/(ms*µM); dissociation linear component slope moff (GluN1/GluN2D NMDARs; [12]): 0.62 pA/(ms*µM)
